# Measured values published in ChEMBL document CHEMBL1909046, “DrugMatrix in vitro pharmacology data”.
# Key:
# [1] = molecular target: Mitogen-activated protein kinase 3 (Homo sapiens, UniProt P27361); assay: DRUGMATRIX: Protein Serine/Threonine Kinase, ERK1 enzyme inhibition (substrate: Myelin Basic Protein); design: species or system Escherichia coli; conditions: Not Active = under 50% inhibition at 10 µM
# [2] = molecular target: Delta-type opioid receptor (Homo sapiens, UniProt P41143); format: cell membranes, HEK293, Membrane; conditions: hek293; also: in other assays of this panel Not Active means under 50% inhibition at 10 µM
# [3] = DRUGMATRIX: Glutamate, Kainate radioligand binding (ligand: [3H] Kainic acid); format: cell membranes, Rattus norvegicus, Wistar, Brain, Membrane; conditions: Not Active = under 50% inhibition at 10 µM
# [4] = molecular target: T1, Nitric oxide synthase, inducible (Mus musculus, UniProt P29477); design: species or system Escherichia coli;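 also: inhibition of iNOS enzyme activity measured with L-arginine as substrate; in other assays of this panel Not Active means under 50% inhibition at 10 µM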
# T1 sequence (P29477 whole entry): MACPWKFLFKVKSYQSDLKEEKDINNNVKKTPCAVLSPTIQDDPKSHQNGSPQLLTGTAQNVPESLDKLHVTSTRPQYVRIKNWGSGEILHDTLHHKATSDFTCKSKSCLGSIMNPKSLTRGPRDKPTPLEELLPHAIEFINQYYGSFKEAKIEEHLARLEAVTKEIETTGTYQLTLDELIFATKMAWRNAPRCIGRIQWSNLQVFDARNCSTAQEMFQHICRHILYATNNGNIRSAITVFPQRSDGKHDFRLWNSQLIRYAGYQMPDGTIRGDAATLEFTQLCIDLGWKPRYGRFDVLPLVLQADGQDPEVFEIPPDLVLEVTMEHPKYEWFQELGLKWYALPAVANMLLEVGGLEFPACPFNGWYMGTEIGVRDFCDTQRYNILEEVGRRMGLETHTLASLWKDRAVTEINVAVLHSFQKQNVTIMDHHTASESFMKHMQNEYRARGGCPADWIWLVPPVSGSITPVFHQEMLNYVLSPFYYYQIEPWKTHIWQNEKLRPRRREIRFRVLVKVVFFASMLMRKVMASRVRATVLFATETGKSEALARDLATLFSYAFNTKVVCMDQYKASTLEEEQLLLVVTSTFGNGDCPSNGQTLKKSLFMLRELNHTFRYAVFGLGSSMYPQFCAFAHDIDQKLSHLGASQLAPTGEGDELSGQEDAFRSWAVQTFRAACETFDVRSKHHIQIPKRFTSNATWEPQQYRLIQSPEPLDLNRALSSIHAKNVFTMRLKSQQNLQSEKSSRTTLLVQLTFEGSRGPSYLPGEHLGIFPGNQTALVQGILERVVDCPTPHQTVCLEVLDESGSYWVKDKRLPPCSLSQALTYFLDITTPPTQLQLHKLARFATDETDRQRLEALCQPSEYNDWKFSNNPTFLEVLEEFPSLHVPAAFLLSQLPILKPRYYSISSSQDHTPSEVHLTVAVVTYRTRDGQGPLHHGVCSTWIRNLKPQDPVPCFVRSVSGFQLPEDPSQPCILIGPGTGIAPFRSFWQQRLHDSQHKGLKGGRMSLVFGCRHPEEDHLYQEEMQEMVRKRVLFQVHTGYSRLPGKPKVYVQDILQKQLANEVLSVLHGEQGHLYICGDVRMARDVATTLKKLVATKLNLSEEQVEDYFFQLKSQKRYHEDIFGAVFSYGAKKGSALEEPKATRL
# [5] = molecular target: Beta-3 adrenergic receptor (Homo sapiens, UniProt P13945); assay: DRUGMATRIX: Adrenergic beta3 radioligand binding (ligand: [125I] Cyanopindolol); format: cell membranes, HEK293, Membrane; conditions: Not Active = under 50% inhibition at 10 µM
# [6] = molecular target: Platelet-activating factor receptor (Homo sapiens, UniProt P25105); format: tissue-based; also: in other assays of this panel Not Active means under 50% inhibition at 10 µM
# [7] = molecular target: 5-hydroxytryptamine receptor 4 (Cavia porcellus, UniProt O70528); format: cell membranes, Dunkin-Hartley, Striatum, Membrane; conditions: for Ki: read-out: Ki; as to all read-outs here: in other assays of this panel Not Active means under 50% inhibition at 10 µM
# 5-hydroxytryptamine receptor 4, sequence (O70528 whole entry): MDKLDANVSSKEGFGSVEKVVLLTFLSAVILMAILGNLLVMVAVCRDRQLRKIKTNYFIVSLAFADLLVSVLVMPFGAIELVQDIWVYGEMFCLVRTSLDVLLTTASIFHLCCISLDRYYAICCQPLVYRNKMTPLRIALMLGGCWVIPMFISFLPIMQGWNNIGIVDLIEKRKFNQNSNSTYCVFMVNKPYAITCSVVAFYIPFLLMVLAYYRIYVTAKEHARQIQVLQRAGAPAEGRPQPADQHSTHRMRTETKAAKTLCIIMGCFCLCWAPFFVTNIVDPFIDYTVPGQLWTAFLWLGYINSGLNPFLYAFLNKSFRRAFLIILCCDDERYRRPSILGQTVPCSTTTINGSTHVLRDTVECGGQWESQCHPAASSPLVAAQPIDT
# Beta-3 adrenergic receptor, sequence (P13945 whole entry): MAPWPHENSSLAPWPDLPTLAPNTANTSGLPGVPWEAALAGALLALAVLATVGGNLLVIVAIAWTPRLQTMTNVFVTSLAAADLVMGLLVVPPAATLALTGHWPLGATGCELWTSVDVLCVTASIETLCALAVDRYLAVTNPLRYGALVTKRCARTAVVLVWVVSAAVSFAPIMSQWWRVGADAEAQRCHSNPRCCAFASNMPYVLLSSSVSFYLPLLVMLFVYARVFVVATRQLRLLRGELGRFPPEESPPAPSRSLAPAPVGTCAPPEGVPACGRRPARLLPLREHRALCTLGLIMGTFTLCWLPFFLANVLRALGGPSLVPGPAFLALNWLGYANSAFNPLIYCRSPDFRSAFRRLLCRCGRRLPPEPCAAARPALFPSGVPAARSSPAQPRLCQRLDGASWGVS
# Delta-type opioid receptor, sequence (P41143 whole entry): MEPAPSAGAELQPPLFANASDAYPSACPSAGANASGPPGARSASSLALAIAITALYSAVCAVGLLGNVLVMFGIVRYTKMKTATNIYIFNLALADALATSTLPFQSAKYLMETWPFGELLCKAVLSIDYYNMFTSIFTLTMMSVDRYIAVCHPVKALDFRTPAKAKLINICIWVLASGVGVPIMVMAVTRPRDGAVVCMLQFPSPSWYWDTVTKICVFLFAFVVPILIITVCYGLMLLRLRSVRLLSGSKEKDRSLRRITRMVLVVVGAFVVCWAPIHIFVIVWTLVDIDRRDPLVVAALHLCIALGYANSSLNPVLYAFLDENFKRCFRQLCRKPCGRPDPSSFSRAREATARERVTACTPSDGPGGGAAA
# Platelet-activating factor receptor, sequence (P25105 whole entry): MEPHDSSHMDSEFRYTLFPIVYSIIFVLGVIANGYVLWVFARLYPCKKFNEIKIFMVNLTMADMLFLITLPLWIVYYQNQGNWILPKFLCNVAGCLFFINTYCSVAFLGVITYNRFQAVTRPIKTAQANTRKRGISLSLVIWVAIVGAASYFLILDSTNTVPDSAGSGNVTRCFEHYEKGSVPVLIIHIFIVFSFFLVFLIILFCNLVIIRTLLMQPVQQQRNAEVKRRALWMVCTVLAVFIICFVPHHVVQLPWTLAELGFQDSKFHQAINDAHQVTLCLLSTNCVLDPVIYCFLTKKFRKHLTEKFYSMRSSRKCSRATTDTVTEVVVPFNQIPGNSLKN
# Mitogen-activated protein kinase 3, sequence (P27361 whole entry): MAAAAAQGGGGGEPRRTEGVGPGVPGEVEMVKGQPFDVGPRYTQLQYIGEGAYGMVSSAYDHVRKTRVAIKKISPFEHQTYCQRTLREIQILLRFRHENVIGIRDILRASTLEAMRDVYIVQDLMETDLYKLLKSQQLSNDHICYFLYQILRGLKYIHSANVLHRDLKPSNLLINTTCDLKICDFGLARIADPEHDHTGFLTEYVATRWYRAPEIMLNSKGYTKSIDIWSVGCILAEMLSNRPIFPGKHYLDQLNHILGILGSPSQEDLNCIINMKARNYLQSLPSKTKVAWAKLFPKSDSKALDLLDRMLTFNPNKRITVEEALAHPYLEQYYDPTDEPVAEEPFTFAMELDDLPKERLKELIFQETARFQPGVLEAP
Structure (SMILES),IC50 [1],IC50 [2],IC50 [3],Ki [3],IC50 [4],IC50 ([5]; hek293),IC50 [6],IC50 [7],IC50 ([1]; read-out: IC50) [nM],IC50 ([5]; read-out: IC50) [nM],Ki ([5]; read-out: Ki) [nM],IC50 ([7]; read-out: IC50) [nM],Ki [7] [nM]
C#C[C@]1(O)CC[C@H]2[C@@H]3[C@H](C)CC4=C(CCC(=O)C4)[C@H]3CC[C@@]21C [TIBOLONE],Not Active,Not Active,Not Active,Not Active,Not Active,Not Active,Not Active,Not Active,,,,,
CN1C(=O)OC(C)(C)C1=O [TRIMETHADIONE],Not Active,Not Active,Not Active,Not Active,Not Active,Not Active,Not Active,Not Active,,,,,
OC[C@@H](O)[C@@H](O)[C@H](O)[C@H](O)CO [MANNITOL],Not Active,Not Active,Not Active,Not Active,Not Active,Not Active,Not Active,Not Active,,,,,
CCN(CC)C(=S)SSC(=S)N(CC)CC,,Not Active,Not Active,Not Active,Not Active,Not Active,Not Active,Not Active,1510,,,,
O=C(O)c1cc(/N=N/c2ccc(S(=O)(=O)Nc3ccccn3)cc2)ccc1O [SULFASALAZINE],Not Active,Not Active,Not Active,Not Active,Not Active,Not Active,Not Active,Not Active,,,,,
O=C(c1ccccc1)c1ccc2n1CCC2C(=O)O (centres undefined) [KETOROLAC],Not Active,Not Active,Not Active,Not Active,Not Active,Not Active,Not Active,Not Active,,,,,
CC[C@H](C)[C@@H](CO[C@@H](Cc1ccccc1)C(=O)N[C@@H](CCS(C)(=O)=O)C(=O)OC(C)C)NC[C@@H](N)CS,Not Active,Not Active,Not Active,Not Active,Not Active,Not Active,Not Active,Not Active,,,,,
CC(C)(C)NC[C@H](O)COc1cccc2c1CCCC2=O [LEVOBUNOLOL],Not Active,Not Active,Not Active,Not Active,Not Active,,Not Active,Not Active,,340,255,,
C[N+]1(C)[C@@H]2C[C@@H](OC(=O)[C@H](CO)c3ccccc3)C[C@H]1[C@@H]1O[C@@H]12.[Br-] [METHSCOPOLAMINE BROMIDE],Not Active,Not Active,Not Active,Not Active,Not Active,Not Active,Not Active,Not Active,,,,,
CO[C@@H]1[C@@H](OC)[C@H](C)[C@@](O)(CC(=O)O)O[C@H]1[C@H](C)[C@H]1O[C@@]2(CC[C@@](C)([C@H]3CC[C@@](C)([C@@H]4O[C@@H]([C@H]5O[C@](C)(O)[C@H](C)C[C@@H]5C)C[C@@H]4O[C@@H]4C[C@H](OC)[C@@H](OC)[C@H](C)O4)O3)O2)C[C@H](O)[C@H]1C.N [MADURAMICIN],Not Active,Not Active,Not Active,Not Active,Not Active,Not Active,Not Active,Not Active,,,,,
Cc1nnc(NS(=O)(=O)c2ccc(N)cc2)s1 [SULFAMETHIZOLE],Not Active,Not Active,Not Active,Not Active,Not Active,Not Active,Not Active,Not Active,,,,,
Cc1cnc(NC(=O)C2=C(O)c3ccccc3S(=O)(=O)N2C)s1 [MELOXICAM],Not Active,Not Active,Not Active,Not Active,Not Active,Not Active,Not Active,Not Active,,,,,
CC1=C(/C=C/C(C)=C/C=C/C(C)=C/C(=O)O)C(C)(C)CCC1 [TRETINOIN],Not Active,Not Active,Not Active,Not Active,Not Active,Not Active,Not Active,Not Active,,,,,
Cc1ccc(S(=O)(=O)NC(=O)NN2CCCCCC2)cc1 [TOLAZAMIDE],Not Active,Not Active,Not Active,Not Active,Not Active,Not Active,Not Active,Not Active,,,,,
Cc1cccc(C)c1NC(=O)C(C)N (centres undefined) [TOCAINIDE],Not Active,Not Active,Not Active,Not Active,Not Active,Not Active,Not Active,Not Active,,,,,
Cc1cc2c(s1)Nc1ccccc1N=C2N1CCN(C)CC1 [OLANZAPINE],Not Active,Not Active,,,Not Active,Not Active,Not Active,Not Active,,,,,
COC(=O)Nc1nc2ccc(C(=O)c3ccccc3)cc2[nH]1 [MEBENDAZOLE],Not Active,Not Active,Not Active,Not Active,Not Active,Not Active,Not Active,Not Active,,,,,
O=C1CC[C@@]2(O)[C@H]3Cc4ccc(O)c5c4[C@@]2(CCN3CC2CC2)[C@H]1O5 [NALTREXONE],Not Active,,Not Active,Not Active,Not Active,Not Active,Not Active,Not Active,,,,,
CCN(CC)CCNC(=O)c1cc(Cl)c(N)cc1OC [METOCLOPRAMIDE],Not Active,Not Active,Not Active,Not Active,Not Active,Not Active,Not Active,Not Active,,,,,
CCOc1cc(N)c(Cl)cc1C(=O)NCC1CN(Cc2ccc(F)cc2)CCO1 (centres undefined) [MOSAPRIDE],Not Active,Not Active,Not Active,Not Active,Not Active,Not Active,Not Active,,,,,882,147
Cc1ccc(Cl)c(Nc2ccccc2C(=O)O)c1Cl [MECLOFENAMIC ACID],Not Active,Not Active,Not Active,Not Active,Not Active,Not Active,Not Active,Not Active,,,,,
CN1C[C@H](CNC(=O)OCc2ccccc2)C[C@@H]2c3cccc4c3c(cn4C)C[C@H]21 [METERGOLINE],Not Active,Not Active,Not Active,Not Active,Not Active,Not Active,Not Active,,,,,1640,274
O=[As][O-].[Na+] [SODIUM ARSENITE],Not Active,Not Active,Not Active,Not Active,Not Active,Not Active,Not Active,Not Active,,,,,
CC(=O)O[C@]1(C(C)=O)CC[C@H]2[C@@H]3C[C@H](C)C4=CC(=O)CC[C@]4(C)[C@H]3CC[C@@]21C [MEDROXYPROGESTERONE ACETATE],Not Active,Not Active,Not Active,Not Active,Not Active,Not Active,Not Active,Not Active,,,,,
CN(C)CCC=C1c2ccccc2COc2ccccc21 [DOXEPIN],Not Active,Not Active,,,Not Active,Not Active,Not Active,Not Active,,,,,
CNCCCC12CCC(c3ccccc31)c1ccccc12 [MAPROTILINE],Not Active,Not Active,,,Not Active,Not Active,Not Active,Not Active,,,,,
